Values after ≈ are worked out from the molar mass of the structure shown.
Legend:
Test in all cases: ≥ marks a high value that may be exact or a test limit, other limits are often not marked, values filed in µg/mL are converted to µM
Escherichia coli UB1005 = system: Escherichia coli UB1005
[1] = system: Salmonella enterica subsp. enterica serovar Pullorum C79-13
[2] = system: Salmonella enterica subsp. enterica serovar Typhi CMCC 50071
[3] = system: Salmonella enterica subsp. enterica serovar Typhimurium ATCC 14028
[4] = system: Salmonella enterica subsp. enterica serovar Typhimurium C77-31
[5] = system: Staphylococcus aureus ATCC 25923
[6] = system: Staphylococcus aureus ATCC 29213
[7] = system: Staphylococcus epidermidis ATCC 12228
[8] = system: Enterococcus faecalis ATCC 29212
Listeria monocytogenes = system: Listeria monocytogenes
[9] = system: Pseudomonas aeruginosa K799
[10] = system: Salmonella enterica subsp. enterica serovar Typhimurium ATCC 14028s
[11] = system: Staphylococcus epidermidis
Aureobasidium pullulans = system: Aureobasidium pullulans
[12] = system: Candida albicans ATCC 10231
[13] = system: Corynebacterium glutamicum ATCC 13032
[14] = system: Escherichia coli ATCC 25922
[15] = system: Pseudomonas aeruginosa ATCC 27853
[16] = system: Staphylococcus aureus ATCC 9144
Bacillus cereus = system: Bacillus cereus
Enterobacter cloacae = system: Enterobacter cloacae
Enterococcus faecalis = system: Enterococcus faecalis
Escherichia coli = system: Escherichia coli
Leuconostoc lactis = system: Leuconostoc lactis
Listeria innocua = system: Listeria innocua
Micrococcus luteus = system: Micrococcus luteus
Pasteurella multocida = system: Pasteurella multocida
Pseudomonas aeruginosa = system: Pseudomonas aeruginosa
Streptococcus uberis = system: Streptococcus uberis
[17] = system: Acinetobacter baumannii MTCC 9829
[18] = system: Alcaligenes faecalis MTCC 1937
[19] = system: Alkalihalobacillus alcalophilus MTCC 860
[20] = system: Bordetella bronchiseptica MTCC 6837
[21] = system: Citrobacter freundii MTCC 1658
[22] = system: Citrobacter koseri MTCC 1657
[23] = system: Corynebacterium glutamicum MTCC 2679
[24] = system: Enterococcus faecalis MTCC 439
[25] = system: Escherichia coli K12 MG1655
[26] = system: Haemophilus influenzae MTCC 621
[27] = system: Klebsiella aerogenes MTCC 111
[28] = system: Klebsiella oxytoca MTCC 2275
[29] = system: Klebsiella pneumoniae MTCC 7407
[30] = system: Pluralibacter gergoviae MTCC 3826
[31] = system: Proteus mirabilis MTCC 3158
[32] = system: Proteus vulgaris MTCC 1771
[33] = system: Pseudomonas aeruginosa MTCC 3542
[34] = system: Salmonella enterica MTCC 9844
[35] = system: Shigella boydii MTCC 11947
[36] = system: Shigella flexneri MTCC 1457
[37] = system: Staphylococcus aureus MTCC 3160
[38] = system: Staphylococcus haemolyticus MTCC 3383
[39] = system: Stenotrophomonas maltophilia MTCC 1890
[40] = system: Vibrio cholerae MTCC 3904

NC(=O)CC[C@H](NC(=O)[C@H](Cc1c[nH]c2ccccc12)NC(=O)[C@H](CCCN=C(N)N)NC(=O)[C@H](CCCN=C(N)N)NC(=O)[C@H](Cc1c[nH]c2ccccc12)NC(=O)[C@@H](N)Cc1ccccc1)C(=O)N[C@@H](Cc1c[nH]c2ccccc12)C(=O)N[C@@H](CCCN=C(N)N)C(=O)N[C@@H](CCCN=C(N)N)C(=O)N[C@@H](CCCN=C(N)N)C(=O)N[C@@H](Cc1c[nH]c2ccccc12)C(=O)N[C@@H](Cc1ccccc1)C(N)=O [FWRRWQWRRRWF]
MIC (Escherichia coli UB1005): 16 µM (≈ 31.4 µg/mL)
MIC [1]: 8 µM (≈ 15.7 µg/mL)
MIC [2]: ≥ 128 µM
MIC [3]: 128 µM (≈ 252 µg/mL)
MIC [4]: 16 µM (≈ 31.4 µg/mL)
MIC [5]: 16 µM (≈ 31.4 µg/mL)
MIC [6]: > 128 µM
MIC [7]: 8 µM (≈ 15.7 µg/mL)

CC[C@H](C)[C@H](NC(=O)[C@H](CCCN=C(N)N)NC(=O)[C@H](CO)NC(=O)[C@H](CC(C)C)NC(=O)[C@@H](N)CCCN=C(N)N)C(=O)N[C@H](C(=O)N[C@H](C(=O)N[C@H](C(=O)N[C@@H](CCCN=C(N)N)C(=O)N[C@H](C(=O)N[C@@H](CO)C(=O)N[C@@H](CCCN=C(N)N)C(N)=O)C(C)C)[C@@H](C)CC)C(C)C)C(C)C [RLSRIVVIRVSR]
MIC [8]: 2.75 µM (≈ 4 µg/mL)
MIC (Escherichia coli UB1005): 1.38 µM (≈ 2 µg/mL)
MIC (Listeria monocytogenes): 0.172 µM (≈ 0.25 µg/mL)
MIC [9]: 11 µM (≈ 16 µg/mL)
MIC [10]: 22 µM (≈ 32 µg/mL)
MIC [5]: 2.75 µM (≈ 4 µg/mL)
MIC [11]: 0.688 µM (≈ 0.999 µg/mL)

CC(C)[C@H](NC(=O)[C@H](C)NC(=O)[C@H](CCCN=C(N)N)NC(=O)[C@H](CCCN=C(N)N)NC(=O)[C@H](Cc1c[nH]c2ccccc12)NC(=O)[C@H](Cc1c[nH]c2ccccc12)NC(=O)CN)C(=O)N[C@@H](C)C(=O)N[C@@H](CCCCN)C(=O)N[C@H](C(=O)N[C@@H](CCCN=C(N)N)C(=O)N[C@@H](CCCCN)C(N)=O)C(C)C [GWWRRAVAKVRK]
MIC (Aureobasidium pullulans): 25 µM (≈ 37.8 µg/mL)
MIC [12]: 25 µM (≈ 37.8 µg/mL)
MIC [13]: 1.6 µM (≈ 2.42 µg/mL)
MIC [14]: 3.1 µM (≈ 4.69 µg/mL)
MIC [15]: 3.1 µM (≈ 4.69 µg/mL)
MIC [16]: 12.5 µM (≈ 18.9 µg/mL)

CC[C@H](C)[C@H](NC(=O)CNC(=O)[C@H](CO)NC(=O)[C@@H](NC(=O)[C@H](CC(C)C)NC(=O)[C@H](CCC(=O)O)NC(=O)[C@H](CC(N)=O)NC(=O)[C@H](C)NC(=O)[C@H](CCCCN)NC(=O)[C@H](CCC(=O)O)NC(=O)[C@H](CCCCN)NC(=O)[C@@H](NC(=O)[C@H](CCCCN)NC(=O)[C@H](CCC(=O)O)NC(=O)[C@H](Cc1c[nH]c2ccccc12)NC(=O)[C@H](CC(C)C)NC(=O)CN)C(C)C)C(C)C)C(=O)N[C@H](C(=O)N[C@@H](CCC(=O)O)C(=O)NCC(=O)N[C@H](C(=O)N[C@@H](CCCCN)C(N)=O)C(C)C)C(C)C [GLWEKVKEKANELVSGIVEGVK]
MIC (Bacillus cereus): ≥ 41.4 µM
MIC (Enterobacter cloacae): ≥ 41.4 µM
MIC (Enterococcus faecalis): ≥ 41.4 µM
MIC (Escherichia coli): > 41.4 µM
MIC (Leuconostoc lactis): ≥ 41.4 µM
MIC (Listeria innocua): ≥ 41.4 µM
MIC (Micrococcus luteus): ≥ 41.4 µM
MIC (Pasteurella multocida): ≥ 41.4 µM
MIC (Pseudomonas aeruginosa): > 41.4 µM
MIC [5]: > 41.4 µM
MIC [6]: > 41.4 µM
MIC [11]: ≥ 41.4 µM
MIC (Streptococcus uberis): ≥ 41.4 µM

CC(C)C[C@H](NC(=O)[C@H](Cc1cnc[nH]1)NC(=O)[C@H](CCCN=C(N)N)NC(=O)[C@H](CC(C)C)NC(=O)[C@H](CCCN=C(N)N)NC(=O)[C@H](CCC(N)=O)NC(=O)[C@@H](NC(=O)[C@H](C)NC(=O)[C@H](CCCN=C(N)N)NC(=O)[C@H](CCCN=C(N)N)NC(=O)[C@H](C)NC(=O)[C@@H](NC(=O)[C@H](CCCN=C(N)N)NC(=O)[C@H](Cc1c[nH]c2ccccc12)NC(=O)[C@@H](N)CCC(=O)O)C(C)C)C(C)C)C(=O)N[C@@H](C)C(=O)N[C@@H](CCCN=C(N)N)C(=O)N[C@@H](CCCN=C(N)N)C(=O)N[C@@H](Cc1ccc(O)cc1)C(=O)N[C@@H](Cc1cnc[nH]1)C(=O)O [EWRVARRAVQRLRHLARRYH]
MIC [17]: 6.08 µM (≈ 16 µg/mL)
MIC [18]: ≥ 48.7 µM
MIC [19]: 6.08 µM (≈ 16 µg/mL)
MIC [20]: 0.76 µM (≈ 2 µg/mL)
MIC [21]: 24.3 µM (≈ 64 µg/mL)
MIC [22]: 6.08 µM (≈ 16 µg/mL)
MIC [23]: 0.38 µM (≈ 1 µg/mL)
MIC [24]: ≥ 48.7 µM
MIC [25]: 6.08 µM (≈ 16 µg/mL)
MIC [26]: 3.04 µM (≈ 8 µg/mL)
MIC [27]: ≥ 48.7 µM
MIC [28]: 3.04 µM (≈ 8 µg/mL)
MIC [29]: ≥ 48.7 µM
MIC [30]: ≥ 48.7 µM
MIC [31]: ≥ 48.7 µM
MIC [32]: ≥ 48.7 µM
MIC [33]: ≥ 48.7 µM
MIC [34]: 6.08 µM (≈ 16 µg/mL)
MIC [3]: 6.08 µM (≈ 16 µg/mL)
MIC [35]: 3.04 µM (≈ 8 µg/mL)
MIC [36]: 0.38 µM (≈ 1 µg/mL)
MIC [37]: ≥ 48.7 µM
MIC [38]: 6.08 µM (≈ 16 µg/mL)
MIC [39]: 24.3 µM (≈ 64 µg/mL)
MIC [40]: ≥ 48.7 µM

Source: DBAASP
